From article PMC11858653, “Design, Synthesis and Bioactive Evaluation of Topo I/c-MYC Dual Inhibitors to Inhibit Oral Cancer via Regulating the PI3K/AKT/NF-κB Signaling Pathway” (Molecules, 2025) come the findings set out here.

The target in one experiment is T1, Topo I (Homo sapiens, UniProt P11387).
T1 sequence (P11387 1-765): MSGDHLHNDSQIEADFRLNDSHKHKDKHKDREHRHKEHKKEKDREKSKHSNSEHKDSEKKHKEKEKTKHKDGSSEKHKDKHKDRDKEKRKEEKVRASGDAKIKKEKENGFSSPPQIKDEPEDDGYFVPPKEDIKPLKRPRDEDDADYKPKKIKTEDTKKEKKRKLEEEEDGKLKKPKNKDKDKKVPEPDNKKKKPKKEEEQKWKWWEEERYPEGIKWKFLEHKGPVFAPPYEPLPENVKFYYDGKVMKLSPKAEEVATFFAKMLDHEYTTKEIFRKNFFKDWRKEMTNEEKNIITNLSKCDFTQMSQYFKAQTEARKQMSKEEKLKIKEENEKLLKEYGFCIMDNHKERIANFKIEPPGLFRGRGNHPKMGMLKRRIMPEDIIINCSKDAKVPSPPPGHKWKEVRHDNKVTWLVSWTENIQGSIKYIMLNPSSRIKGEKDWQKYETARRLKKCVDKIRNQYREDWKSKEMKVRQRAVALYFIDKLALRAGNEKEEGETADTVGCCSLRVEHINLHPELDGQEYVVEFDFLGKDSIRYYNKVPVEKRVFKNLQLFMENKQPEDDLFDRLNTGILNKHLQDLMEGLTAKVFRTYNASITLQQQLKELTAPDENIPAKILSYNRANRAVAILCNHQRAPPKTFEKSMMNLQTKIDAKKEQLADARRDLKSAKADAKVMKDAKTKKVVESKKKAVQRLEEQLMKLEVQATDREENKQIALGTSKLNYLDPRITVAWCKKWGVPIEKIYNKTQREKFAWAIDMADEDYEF
Briefly: Cellular thermal shift assay (CETSA). The experiment is classed as cell-based. Further details: endogenous in cells; host or cells: Cal27. The settings on record: 8 μM. As for the experimental part:
For intact cell assays, Cal27 cells were treated with compound 7be (8 μM) for 3 h before collection and washing several times with PBS buffer to avoid excess compound residues. Each cell suspension was dispensed into different 0.2 mL PCR tubes and then denatured for 3 min at different temperatures on a PCR instrument, and the cells were freeze-thawed twice with liquid nitrogen. After centrifugation, the supernatant was collected, mixed with an appropriate amount of up-sampling buffer and boiled at 95 °C for 6 min. The supernatant was detected by Western blot. For cell lysate experiments, Cal27 cells were collected with RIPA lysis buffer. Then compound 7be (8 μM) was added to the supernatant and incubated at 25 °C for 2 h. After denaturation at different temperatures for 3 min, centrifugation was performed before collecting the supernatant, mixing with an appropriate amount of lysing buffer and boiling at 95 °C for 6 min, and then Western blot was performed to detect the supernatant.

The subject of experiment [1] is Bax, Bcl-2, Cleaved PARP1/PARP1 in Cal27 cells. Briefly: Western blot of apoptosis-related proteins. The class given is cell-based, human. How it is done: After Cal27 cells had been treated with the desired concentration of each drug for 24 h, the cells were collected and the total protein was extracted. The cells were then separated on a gel of appropriate concentration and transferred to a PVDF membrane. After blocking with milk, the membrane was incubated with primary antibody at 4 °C overnight. Subsequently, the membrane was incubated with horseradish peroxidase-coupled secondary antibody for 2 h. Finally, the protein bands were used to detect the immunoreactive signal using an enhanced chemiluminescence kit.
A general note: Immunoblotting shows a protein as a band on a membrane.

For the compound `Cc1cc(C)c2c(n1)S(=O)(=O)c1c-2nc(NCCN2CCCCC2)c2ccccc12` [7be, 7,9-Dimethyl-5-((2-(piperidin-1-yl)ethyl)amino) pyrido[3′,2′:4,5]thieno[3,2-c]isoquinoline 11,11-dioxide], on Topo I (Cal27 lysate, 2 h, especially 52 to 56 °C), the “thermal stability of Topo I protein, cell lysate” value is reported as “increased”. In addition, the “thermal stability of Topo I protein, intact cells” value at Topo I (intact Cal27 cells, 3 h) is “increase in thermal stability”. For the same compound, in experiment [1], the “Cleaved PARP1/PARP1” value is “up-regulated”, the “anti-apoptotic protein Bcl-2” value is recorded as “down-regulated” and the “pro-apoptotic protein Bax” value is given as “up-regulated”.
